Here are results for one compound from paper PMC11997307, “Rat Sarcoma (RAS)-Protein-Targeting Synthetic Cell-Penetrating Peptide as an Anticancer Biomaterial” (Biomaterials Research, 2025).

Molecules are shown by their SMILES.

The test system of experiment [1] is MDA-MB-231 cells. The experiment in a line: Tumor colony forming assay. In kind it is cell-based, human. The conditions noted are these: MDA-MB-231, 0, 1, 10, 50, 100 or 200 μM RBP, 5 d, crystal violet. The procedure: MDA-MB-231 cells were plated in 24-well culture plates at a density of 1 × 10^3 cells per well and incubated for 24 h at 37 °C in a humidified incubator with 5% CO2. […] The cells were fixed with Carnoy’s fixative (75% methanol and 25% acetic acid) for 5 min at room temperature and stained with 0.4% crystal violet for 5 min. After staining, the cells were rinsed with distilled water, and images were taken.

The test system of experiment [2] is phospho-c-RAF and phospho-ERK1/2 in HCT-116 cells. The experiment in a line: Western blot of RAS-MAPK pathway, HCT-116. In kind it is cell-based, human. To be noted: HCT-116, 10-250 μM RBP 6 h then 50 ng/ml EGF 10 min. The procedure: (§1) Protein expression was confirmed via Western blot analysis. Briefly, 9 × 10^5 cells were cultured in 100-mm-diameter dishes. When they reached 90% confluence, the cells were starved for 18 h in serum-free medium. […] At the end of the culture period, the cells were lysed for 20 min in cold lysis buffer on ice. Protein concentration was measured using bicinchoninic acid protein assays (Thermo Fisher Scientific, MA, USA). Equal aliquots of protein (40 μg) were boiled for 7 min in 5× sample buffer and separated by 10% SDS–PAGE. Proteins were transferred onto nitrocellulose membranes, followed by washing with Tris-buffered saline (TBS) containing 0.1% Tween 20 (TBST). The membranes were then blocked for 60 min at room temperature with 5% skim milk in TBST. Following the washing procedure, the membranes were incubated with primary antibodies (RAS, phospho-ERK1/2, ERK1/2, phospho-RAF proto-oncogene serine/threonine-protein kinase [phospho-c-RAF; S338], c-RAF [Cell Signaling Technology, Beverly, MA, USA], and GAPDH [Santa Cruz Biotechnology, Inc., Santa Cruz, CA, USA]) diluted in TBST containing 5% skim milk at 4 °C for 18 h. […] The membranes were subsequently washed 3 more times, and protein bands were detected using chemiluminescence reagents (West Pico PLUS, Thermo Fisher Scientific, USA).
On the technique in general: Immunoblotting shows a protein as a band on a membrane.

Experiment [3] has as its system phospho-c-RAF and phospho-ERK1/2 in HT-29 cells. Briefly: Western blot of RAS-MAPK pathway, HT-29. In kind it is cell-based, human. To be noted: HT-29, 10-250 μM RBP 6 h then 50 ng/ml EGF 10 min. As for the experimental part: as §1
The subject of experiment [4] is MDA-MB-231 cell-derived tumors. Briefly: Mouse xenograft tumor model. In kind it is in vivo. To be noted: BALB/c nude mice, MDA-MB-231 xenograft. The procedure: Female BALB/c nude mice (aged 5 to 6 weeks) were utilized in these studies to establish breast cancer xenograft models. These mice were obtained from Orient Bio, Inc. (Seongnam, Republic of Korea) and maintained in the Division of Laboratory Animal Resources animal facility throughout the experimental period. The selection, management, and experimental protocols, as well as the preparation of the animals, were conducted in accordance with the guidelines approved by the Institutional Animal Care and Use Committee of Seoul National University. All experiments adhered to the animal protocol approved by the Institutional Animal Care and Use Committee at Seoul National University (protocol number: SNU-171026-1-5). MDA-MB-231 cells were cultured until they reached 80% to 90% confluency and then harvested and prepared as suspensions (3 × 10^6 cells/100 μl in PBS) mixed with Matrigel. These cell suspensions were injected into the right hind flanks of nude mice (n = 8). […] The control mice received PBS injections. The mice were weighed, and their tumor volumes were measured 3 times per week using Vernier calipers, starting on the first day of treatment. The tumor volume was calculated using the formula tumor volume = A × B^2 × 0.52, where A represents the longest tumor diameter and B represents the shortest diameter. After 6 weeks, the mice were euthanized in a sealed chamber with CO2 gas for 5 to 10 min, and their solid tumors were harvested and fixed in 4% paraformaldehyde for subsequent analysis via immunohistochemistry (IHC).
The tissues were fixed in 4% formalin before being embedded in paraffin. Sections with a thickness of 4 μm were deparaffinized with xylene and then rehydrated with a graded series of ethanol solutions, ranging from 95% to 100%. […] Antibody binding was detected through incubation with EnVision FLEX/horseradish peroxidase (Dako) for 30 min. […] The intensity and distribution of Ki-67-specific immunostaining were assessed using a Leica DM6B digital light fluorescence microscope following hematoxylin counterstaining.

Setting [5] is: 10 mg/kg intraperitoneal, 6 weeks.

`C[C@@H](O)[C@H](NC(=O)[C@H](CO)NC(=O)[C@H](CS)NC(=O)[C@H](CCCCN)NC(=O)CN)C(=O)N[C@@H](CCCNC(=N)N)C(=O)NCC(=O)N[C@@H](CCCNC(=N)N)C(=O)N[C@@H](CCCCN)C(=O)N[C@@H](CS)C(=O)N[C@@H](CS)C(=O)N[C@@H](CCCNC(=N)N)C(=O)N[C@@H](CCCNC(=N)N)C(=O)N[C@@H](CCCCN)C(=O)N[C@@H](CCCCN)C(N)=O` [RBP]: the colony area entry in experiment [1] is “dose-dependent decrease in colony area”. The “activation of RAF (phospho-c-RAF)” value in experiment [2] is listed as “effectively inhibited”. For the same compound, the “phosphorylation of ERK1/2” value in experiment [2] (p-ERK/ERK, n = 3) is “effectively inhibited”. In addition, the RAF activation result in experiment [3] is “did not inhibit”. For the same compound, the ERK1/2 phosphorylation entry in experiment [3] (n = 3) was “did not inhibit”. Further, the “tumor growth vs not-treated group” value in experiment [4] (10 mg/kg intraperitoneal 3 times per week for 6 weeks, n = 8, P < 0.05) is recorded as “significant reduction”. For the same compound, in experiment [4] (setting [5]), the “Ki-67 expression in tumor sections (IHC)” value was “decreased Ki-67 expression” and the “immune cell infiltration in tumors (H&E)” value is reported as “increased immune cell infiltration”.
